Measured values taken from patent US20240051952A1, “HMOX1 INDUCERS” (Mitobridge Inc., priority 2019, published 2024).

Columns and labels:
[1] = test system: Human Heme Oxygenase-1 (HMOX-1); assay: ELISA assay to measure human heme oxygenase-1 (HMOX-1) in HepG2 lysate; format: cell-based; conditions: fold change of human HMOX1 protein levels relative to DMSO control, HepG2
Summary of the method: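 HepG2 cells lysed in PBS/0.5% Triton X-100/1 mM EDTA with protease inhibitors; lysate diluted 1:20. Sandwich ELISA: anti-HO-1 capture (8 μg/ml), biotinylated detection antibody (200 ng/ml), streptavidin-HRP, chemiluminescent read. Quantified against 12-point HO-1 standard curve from 20 ng/ml; incubations at 20 °C.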

FTH1 = FTH1 mRNA expression in HepG2 cells (Nanostring); format: cell-based, human; conditions: 24 hours treatment
Experimental: RNA Isolation and Quantification of Gene Expression
HepG2 cells were seeded at 250 k/well in 12-well tissue culture plates coated with collagen (collagen I, rat tail (thin plate coating); ENZO Life Sciences) for approximately 24 hours. The seeded cells were then treated with dose titration of the compound of Example 17 or dimethyl fumarate (DMF) (a Nrf2 activator; Fisher Scientific) via media change, with biological triplicates performed for each treatment. After approximately 24 hours of treatment, cells were visually inspected to confirm that no toxicity occurred with compound treatment. The treated cells were washed with PBS, aspirated, parafilmed and frozen at −80° C. prior to RNA isolation. RNA was isolated using Machery-Nagel isolation kit (NucleoSpin® RNA: catalog 740955.250) and then quantitated using ThermoFisher Nanodrop.
RNA was diluted for Nanostring gene expression analysis. The diluted RNA at an input of 200ng RNA was run on a Nanostring instrument, which was supported with nCounter® SPRINT Profiler System and nSolver4.0 Software, nCounter® SPRINT Cartridge, nCounter® SPRINT Reagent Pack, and nCounter© SPRINT Hybridization Buffer. Analysis was done manually using raw data obtained from nSolver4.0 Software. CLTC, POLR2A, RPL27 and TBP were used as reference genes for normalization. Data was graphed as fold change compared to DMSO treatment. […]

Maximum Fold induction [1]: 11-40
Structure (SMILES): Cn1c(Nc2nc3ccccc3o2)nc2cc(C(=O)NCCOCCO)ccc21 [Example 17, 2-(benzo[d]oxazol-2-ylamino)-N-(2-(2-hydroxyethoxy)ethyl)-1-methyl-1H-benzo[d]imidazole-5-carboxamide]
FTH1 expression fold increase (FTH1): comparable fold increases
